Like-named read-outs stand apart in the source and are kept apart here.
Legend:
[1] = system: MCP-1 production by THP-1 cells; experiment: MCP-1 production by macrophages; type: cell-based, human; details: Homo sapiens; THP-1 cells stimulated with opsonized zymosan, 24 hours; read-out: IC50 MCP-1 production
Method in brief: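 THP-1 cells (1×10^6/well, 10% FCS) stimulated with 1 mg/ml serum-opsonized zymosan plus compound added from DMSO stocks at 1/1000, 24 h at 37° C. MCP-1 in supernatants quantified by sandwich ELISA (TMB read-out) against a recombinant human MCP-1 standard curve, triplicates, background-subtracted.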

[2] = system: IL-8 production by THP-1 cells; experiment: IL-8 production by macrophages; type: cell-based, human; details: Homo sapiens, read-out: IC50 IL-8 production
Method: The human macrophage cell line, THP-1 was plated in a 12 well plate such that each well contains 1×10^6 cells in 2 ml of media containing 10% FCS. Opsonized zymosan was prepared by resuspending 20 mg of zymosan A in 2 ml of ddH2O and homogenizing until a uniform suspension was obtained. Homogenized zymosan was pelleted at 250 g, resuspended in 4 ml of human serum for a final concentration of 5 mg/ml, and incubated in a 37° C. water bath for 20 minutes to enable opsonization. Geldanamycin was prepared in DMSO at a concentration of 10^−2 M and serially diluted 10-fold to give a range of stock concentrations (10^−8 M to 10^−2 M).
THP-1 cells were stimulated to produce IL-8 by the addition of 1 mg/ml opsonized zymosan. Geldanamycin was added to THP-1 cells by directly adding DMSO stock solutions, prepared earlier, at a 1/1000 dilution, to each well. Each drug concentration was tested in triplicate wells. Plates were incubated at 37° C. for 24 hours.
After a 24-hour stimulation, supernatants were collected to quantify IL-8 production. IL-8 concentrations in the supernatants were determined by ELISA using recombinant human IL-8 to obtain a standard curve. A 96-well MAXISORB plate was coated with 100 μL of anti-human IL-8 Capture Antibody diluted in Coating Buffer (0.1M sodium carbonate pH 9.5) overnight at 4° C. The dilution of Capture Antibody used was lot-specific and was determined empirically. Capture antibody was then aspirated and the plate washed 3 times with Wash Buffer (PBS, 0.05% TWEEN-20). Plates were blocked for 1 hour at room temperature with 200 μL/well of Assay Diluent (PBS, 10% FCS pH 7.0). After blocking, plates were washed 3 times with Wash Buffer. Standards and sample dilutions were prepared as follows: (a) sample supernatants were diluted 1/100 and 1/1000; (b) recombinant human IL-8 was prepared at 200 pg/ml and serially diluted to yield as standard curve of 3.1 pg/ml to 200 pg/ml Sample supernatants and standards were assayed in triplicate and were incubated at room temperature for 2 hours after addition to the plate coated with Capture Antibody The plates were washed 5 times and incubated with 100 μL of Working Detector (biotinylated anti-human IL-8 detection antibody+avidin-HRP) for 1 hour at room temperature. Following this incubation, the plates were washed 7 times and 100 μL of Substrate Solution (Tetramethylbenzidine, H2O2) was added to plates and incubated for 30 minutes at room temperature. Stop Solution (2 NH2SO4) was then added to the wells and a yellow color reaction was read at 450 nm with A correction at 570 nm. Mean absorbance was determined from triplicate data readings and the mean background was subtracted. IL-8 concentration values were obtained from the standard curve. […] The IC50 values for the following additional compounds were determined using this assay: IC50 (nM): 17-AAG, 56; mycophenolic acid, 549; resveratrol, 507; rapamycin, 4; 41; SP600125, 344; halofuginone, 641; D-mannose-6-phosphate, 220; epirubicin hydrochloride, 654; topotemay, 257; mithramycin, 33; daunorubicin, 421; celastrol, 490; chromomycin A3, 36

SMILES	IC50 [1]	IC50 ([2]; THP-1, 24 h)	IC50 ([2]; THP-1 cells stimulated with opsonized zymosan, 24 hours)
CC1=C(O)C(=O)C=C2C1=CC=C1[C@@]2(C)CC[C@@]2(C)[C@@H]3C[C@](C)(C(=O)O)CC[C@]3(C)CC[C@]12C [celastrol]	421 nM	490 nM	–
COc1c(C)c2c(c(O)c1C/C=C(\C)CCC(=O)O)C(=O)OC2 [mycophenolic acid]	764 nM	–	549 nM

From patent publication US20090226500A1, “SUTURES AND ANTI-SCARRING AGENTS” (Angiotech Pharmaceuticals, Inc, priority 2006, published 2009)
